In patent US6166066A, “Cannabinoids selective for the CB2 receptor” (The University of Connecticut, priority 1999, dated 2000):

Legend:
CB1 receptor [1] = target: T1, CB1 receptor (Rattus norvegicus, UniProt P20272); assay: Radioligand binding assay ([H^3]CP-55,940), rat forebrain membranes as source of CB1; details: 0.8 nM [H^3]CP-55,940, 30° C., 1 hour, Ki from IC50 (Cheng and Prusoff)
T1 construct: rat forebrain membranes as a source of CB1; from tissue; host or cells: rat brain membranes (called forebrain; prepared from whole brains minus the cerebral cortex)
Protocol: The binding affinities of the novel compounds described in this invention for the central cannabinoid receptor were assessed using rat forebrain membranes as a source of CB1. Membranes were prepared as described by the method of Dodd et al., Brain Res. 226:107 (1981), the entire teachings of which are incorporated herein by reference. Rat whole brains minus the cerebral cortex were diced with a razor blade and homogenized in 0.32 M sucrose, pH 7.4. The resulting suspension was spun at 400×g at 4° C. The supernatant was decanted and layered over 1.2 M sucrose in TME buffer (25 mM Tris base, 5 mM MgCl2 1 mMEDTA, pH 7.4) and spun at 109,000×g. The interface containing plasma membrane protein was collected, pooled and layered over 0.8 M sucrose in TME, pH 7.4. The pellet was carefully resuspended in TME, pH 7.4 and the total protein content was assayed by the method of Markwell et al., Anal. Biochem. 87:206 (1978), the entire teachings of which are incorporated herein by reference. Protein was aliquotted, frozen under liquid nitrogen and stored at -80° C. until use.
(§1) Approximately 30 μg of tissue was incubated in silanized 96 well microtiter plate with TME containing 0.1% essentially fatty acid free bovine serum albumin (BSA), 0.8 nM [H^3 ]CP-55,940 and various concentrations of the test compound in a final volume of 200 μL. Assays were incubated at 30° C. for 1 hour. The samples were filtered using Packard Filtermate 196 and Whatman GF/C Filterplates and washed with wash buffer (TME) containing 0.5% BSA. Radioactivity was detected using MicroScint 20 scintillation cocktail added directly to the dried filterplates, and the filterplates were counted using a Packard Instruments Top-Count. Nonspecific binding was assessed using 100 nM CP-55,940. Data collected from three independent experiments performed with duplicate determinations were normalized between 100% and 0% specific binding for [H^3 ]CP-55,940, determined using buffer and 100 nM CP-55,940. The normalized data was analyzed using a 4 parameter nonlinear logistic equation to yield IC50 values. Data from at least two independent experiments performed in duplicate were used to calculate IC50 values which were convered to Ki values using the assumptions of Cheng and Prusoff, Biochem. Pharmacol. 22:3099 (1973), the entire teachings of which are incorporated by reference.

CB2 receptor [2] = target: T2, CB2 receptor (Mus musculus, UniProt P47936); assay: Radioligand binding assay ([H^3]CP-55,940), mouse spleen as source of CB2; details: for Ki: mouse spleen, conducted in the same manner as for CB1, Ki from IC50 (Cheng and Prusoff)
T2 construct: Mouse spleen was used as a source of CB2 receptors; from tissue; host or cells: mouse spleen
Protocol: as §1
Mouse spleen was used as a source of CB2 receptors to assess binding affinity of analogs described in this invention. The CB2 binding assay was conducted in the same manner as for CB1. Silanized centrifuge tubes were used throughout to minimize receptor loss due to adsorption.

CB1 receptor [3] = details: in the brain; background; cited from earlier work
CB2 receptor [4] = details: in the spleen; background; cited from earlier work

T2 sequence (P47936 whole entry): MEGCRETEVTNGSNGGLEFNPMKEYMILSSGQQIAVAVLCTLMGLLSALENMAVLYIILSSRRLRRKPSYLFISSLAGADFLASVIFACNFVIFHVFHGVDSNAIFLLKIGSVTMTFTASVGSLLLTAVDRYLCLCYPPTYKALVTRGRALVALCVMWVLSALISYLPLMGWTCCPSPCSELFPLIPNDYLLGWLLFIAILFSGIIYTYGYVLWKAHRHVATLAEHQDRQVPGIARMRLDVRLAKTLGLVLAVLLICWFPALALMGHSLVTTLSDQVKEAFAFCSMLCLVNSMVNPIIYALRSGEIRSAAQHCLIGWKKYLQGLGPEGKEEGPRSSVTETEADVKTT
T1 sequence (P20272 whole entry): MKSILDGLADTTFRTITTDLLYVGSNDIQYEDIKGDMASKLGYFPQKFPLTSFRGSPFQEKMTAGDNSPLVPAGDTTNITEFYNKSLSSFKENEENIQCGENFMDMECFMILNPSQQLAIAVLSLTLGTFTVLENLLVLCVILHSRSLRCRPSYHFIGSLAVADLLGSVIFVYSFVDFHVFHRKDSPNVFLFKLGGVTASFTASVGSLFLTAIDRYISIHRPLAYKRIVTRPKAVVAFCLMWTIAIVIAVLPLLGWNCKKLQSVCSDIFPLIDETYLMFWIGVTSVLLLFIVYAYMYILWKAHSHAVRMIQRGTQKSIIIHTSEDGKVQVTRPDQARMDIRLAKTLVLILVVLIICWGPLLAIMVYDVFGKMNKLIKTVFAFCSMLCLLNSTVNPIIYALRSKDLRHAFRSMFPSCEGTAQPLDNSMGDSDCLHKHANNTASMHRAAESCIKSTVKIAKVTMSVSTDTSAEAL

SMILES | Ki (CB1 receptor [1]) [nM] | Ki (CB2 receptor [2]) [nM] | binding to the CB1 receptor (CB1 receptor [3]) | binding to the CB2 receptor (CB2 receptor [4]) | affinity for the CB2 receptor relative to the CB1 receptor (CB2 receptor [2]; CB2 (mouse spleen) versus CB1 (rat forebrain))
CCCCCCC1CCCc2c1cc(O)c1c2OC(C)(C)C2CC=C(C)CC12 (stereo not shown) [AM858] | 524 | 456 | – | – | –
CC1=CCC2C(C1)c1c(cc3c(c1O)C1CC(CCC1C)C3(C)C)OC2(C)C (stereo not shown) [AM725] | 360000 | 281 | – | – | –
CCCCCc1cc(O)c2c(c1)OC(C)(C)C1CC=C(C)CC21 (single isomer, unassigned) [Δ^8 -Tetrahydrocannabinol] | – | – | binds | binds | –
CCCCCC1CCc2c(cc3c(c2O)C2CC(C)=CCC2C(C)(C)O3)C1 (stereo not shown) [AM856] | 402 | 162 | – | – | –
CC1=CCC2C(C1)c1c(cc3c(c1O)C1CC(CCC1C)C3(C)C)OC2(C)C (stereo not shown) [AM724] | 6880 | 16.9 | – | – | about 400 times
CCCCCCC1CCc2cc(O)c3c(c2C1)OC(C)(C)C1CC=C(C)CC31 (stereo not shown) [AM855] | 22.3 | 58.6 | – | – | –
